# Experimental data: PubChem BioAssay AID1996
# Details: buffer; pH 7.4; 200.0 µM
row,solubility kinetic [µg/mL],Structure (SMILES)
1,< 0.4,CC(C)COc1ccc(CNC(=S)Nc2ccccc2)cc1Cl
2,9.1,Cc1cccnc1NC(=O)NC(=O)c1ccc(C(C)(C)C)s1
3,> 49.1,Cc1ccc(OCC(=O)N2CCc3ccccc3C2)c([N+](=O)[O-])n1
4,> 47.6,O=S(=O)(NCc1ccccn1)c1cc(Cl)ccc1Cl
5,3,CC(=O)c1ccc(S(=O)(=O)N2CCC(C(=O)Nc3ncc(C)s3)CC2)cc1
6,> 46.9,CCn1ccnc1CNC(=O)c1ccc2oc(C(C)C)nc2c1
7,> 49.3,Cc1ccccc1C(=O)NC(=S)N(CCO)Cc1ccccc1
8,31.7,O=C(COC(=O)c1cc(Cl)nc(Cl)c1)Nc1ccc(Cl)c(S(=O)(=O)N2CCOCC2)c1
9,37.9,Cc1[nH]c2ccccc2c1C(C[N+](=O)[O-])c1ccco1 (stereo not given)
10,> 53.6,CCOC(=O)c1sc2ncnc(Nc3cccc(C(=O)O)c3)c2c1C
11,18.2,CN(C)S(=O)(=O)NCCNc1ccc(C(F)(F)F)cc1[N+](=O)[O-]
12,3.2,ClCc1nc2ccccc2c2ccccc12
13,> 53.8,O=C(N/C(=C\c1ccc(Cl)cc1)C(=O)N1CCCCC1)c1ccco1
14,14.4,O=C(NCCCCc1ccccc1)c1ccccc1
15,> 34.7,Nc1cc(=O)[nH]c(=O)n1CCc1ccccc1
16,15.8,CC1CCCN(c2ccc(C(=O)Nc3cccnc3)cc2[N+](=O)[O-])C1 (stereo not given)
17,13,CCC(=O)N/C(=N/c1nc(C)cc(C)n1)Nc1ccccc1
18,> 46,Cc1cnc(C(=O)OCC(=O)Nc2ccc(Cl)cn2)cn1
19,36.5,N#Cc1ccc(Sc2ccccn2)c([N+](=O)[O-])c1

row,solubility kinetic [µg/mL],Structure (SMILES)
1,4.3,Cn1c(=O)c2cc3ccccc3nc2n(C)c1=O
2,> 47.7,Cc1ccc(NC(=O)CN(C)C(=O)c2ccc(Cl)nc2)cc1
3,32.9,Cc1ccccc1C(=O)Nc1ccccc1C(=O)N1CCC(C)CC1
4,25.3,Cc1ccc(-c2nc3ncccc3o2)cc1NC(=O)C(C)C
5,45,N#C/C(=C\N1CCOCC1)S(=O)(=O)c1ccc(Cl)cc1
6,> 44.3,O=C(O)c1ccc2c(c1)C(=O)N(CCc1ccccc1)C2=O
7,8.6,Cc1cn(S(=O)(=O)c2ccc(Cl)cc2)c(C)n1
8,62.9,Cc1onc(-c2c(Cl)cccc2Cl)c1C(=O)O/N=C(\C#N)c1c(Cl)cccc1Cl
9,34.4,c1ccc2[nH]c(-c3ccc4c(c3)OCO4)nc2c1
10,> 59.6,O=C(CN1C(=O)NC2(CCOc3ccccc32)C1=O)NCCc1ccc(F)cc1 (stereo not given)
11,> 40.8,O=C(NCc1ccncc1)Nc1cccc([N+](=O)[O-])c1
12,34.3,CCN(CC)S(=O)(=O)c1ccc(Cl)nc1
13,> 38.7,CCOc1ccc2nc(S(N)(=O)=O)sc2c1
14,40.8,O=C(CSc1ncccn1)NC(=O)NCc1ccco1
15,42.9,CCOC(=O)N(C)S(=O)(=O)c1ccccc1[N+](=O)[O-]
16,41,COC(=O)[C@@H](C)NC(=O)c1ccc2oc(CCc3ccccc3)nc2c1
17,< 0.6,O=S(=O)(/C=C/c1ccccc1)N1CCc2ccccc2C1
18,> 48.2,CCC(=O)Nc1ccc(/C=C(\C(C)=O)C(=O)c2ccccc2)cc1
19,0.8,N#Cc1ccccc1N/C=C/C(=O)c1ccc(Cl)cc1

row,solubility kinetic [µg/mL],Structure (SMILES)
1,> 38.3,O=S(=O)(CCN1CCOCC1)c1ccccc1
2,27.2,CCOc1cc(/C=N/OC(C)=O)ccc1OCc1ccccc1
3,33.7,COc1ccc(CNC(=O)c2sccc2-c2ccccc2)cc1OC
4,40.7,CN(C)c1ccc(/C=C/c2nc3ccccc3c(=O)n2CCO)cc1
5,4.3,CNc1ncnc2sc(-c3ccccc3)cc12
6,< 0.4,CCOc1ccc(NC(=O)c2ccc(Cl)c(NC(=O)c3ccco3)c2)cc1
7,> 62.8,CN(Cc1nc2ccccc2c(=O)[nH]1)C(=O)c1cccc(NC(=O)c2cccs2)c1
8,22.6,CCOC(=O)c1oc2ccccc2c1NC(=O)C(C)(C)C
9,37.3,Cc1ccccc1NC(=O)c1ccc2nccnc2c1
10,4,Cc1cc(C(=O)Nc2cccc3ccccc23)c(C)o1
11,> 48.6,O=C(O)c1cccnc1SCc1cccc(Br)c1
12,46.3,Cc1ccccc1NC(=O)c1ccccc1N(C)S(=O)(=O)c1ccccc1
13,4.2,O=c1c(Cl)c2oc3ccccc3nc-2c2ccccc12
14,7.8,CN(CC(=O)Nc1ccc(Cl)cc1F)C1=NS(=O)(=O)c2ccccc21
15,> 42.5,Cc1ccc(NC(=O)CN(C)C(=O)c2ccccn2)cc1
16,> 56.5,Cc1ccc(S(=O)(=O)N2CCC[C@H]2C(=O)Nc2ccc(F)cc2C)cc1
17,1.8,O=C(Nc1nc2ccccc2[nH]1)c1ccc(Cl)cc1
18,1.7,Cc1cc(N2CCOCC2)nc2ccc(Cl)cc12
19,14.9,Fc1ccc(NC(=S)Nc2nccs2)cc1

# More lines, now with the values behind:
row,Structure (SMILES),solubility kinetic [µg/mL]
1,O=C1CN(/N=C/c2ccc([N+](=O)[O-])o2)C(=O)N1,> 35.7
2,CN(C)C=Nc1nonc1-c1ccc(Cl)cc1,1.4
3,COC(=O)c1ccc(C(=O)OC)c(NC(=S)N2CCCC(CO)C2)c1 (stereo not given),50.9
4,O=C(NCCCO)C(=O)Nc1cc2c3c(c1)CCN3C(=O)CC2,> 47.6
5,N#Cc1ccccc1CN1C(=O)NC2(CCCCCC2)C1=O,> 44.6
6,Cc1oc2ccccc2c1CC(=O)NCCCN(C)C,> 41.2
7,CCc1c(C)c(C#N)c2[nH]c3ccccc3n2c1=S,6.6
8,O=C(N/N=C/c1cc(Cl)cc([N+](=O)[O-])c1O)C1CC1,> 42.6
9,O=C(CN1CCOCC1)NNC(=S)Nc1ccc(Cl)cc1,> 49.3
10,COc1ccccc1OCCNC(=O)CN1C(=O)NC2(CCCCC2)C1=O,> 56.3
11,CCOC(=O)c1c(C=O)c2ccccc2n1Cc1ccccc1,< 0.7
12,COc1ccc(NC(=O)CN2CCCC2)cc1,34
13,Cc1ccc(/C=C/C(=O)OCC(=O)c2ccc3c(c2)NC(=O)CO3)o1,17.8
14,CC(=O)c1ccc(NC(=O)COC(=O)Cc2ccsc2)cc1,> 47.6
15,CCCCNC(=O)Nc1ccc(C2SCCS2)cc1,9.9
16,Cc1cccc(N=C2NC(=O)C(CO)(CO)S2)c1,22.4
17,CCCCOc1ccc(CN2CCSCC2)cc1,14.1
18,COc1ccc(CNC(=O)CN2CCN(S(=O)(=O)c3c(C)c(C)cc(C)c3C)CC2)cc1OC,3.5
19,CCOc1ccc(NC(=S)N2CCCCCC2)cc1,> 41.8
20,Cl.c1ccc2c(c1)CN1CCCC1=N2,> 31.3
21,CN=C1S/C(=C/c2cn(CC(=O)OC)c3ccccc23)C(=O)N1C,4.1

row,Structure (SMILES),solubility kinetic [µg/mL]
1,CC(C)(C)CC(=O)NC(=S)NCc1ccco1,9.3
2,Cc1cc(=O)n(C)c2ccc(S(=O)(=O)N3CCOCC3)cc12,46.5
3,COc1cc(CC(=O)OCC(=O)NCc2cccs2)cc(OC)c1OC,> 56.9
4,CCOc1ccc2oc(C(=O)N3CCCN(C)CC3)c(C)c2c1.Cl,> 52.9
5,C=C(C)CN1C(=O)C2(OCCO2)c2cc(Br)ccc21,41.1
6,O=C(CCc1ccncc1)N1CCCC(Nc2ccc(F)cc2)C1 (stereo not given),45.6
7,O=C(Nc1ccc(F)c(F)c1)C1=COCCO1,35.6
8,CN(C)C(=O)CSc1nnc(Cc2ccc3c(c2)OCO3)o1,> 48.2
9,CC(C)(C)NC(=O)CSc1nc(N)cc(=O)[nH]1,> 38.4
10,CCCc1ccc(OCC(O)CN2CCCC2)cc1.Cl (stereo not given),37.2
11,COC(=O)c1c(NC(C)=O)csc1C,29.2
12,CCOC(=O)c1c(C)[nH]c(C(=O)OCC(=O)NCc2ccccc2)c1C,4.5
13,Cc1ccccc1CN1CCN(C(=O)CC(C)C)CC1,27
14,NC(=O)c1ccc(NC(=O)CN2CCOCC2)cc1,35.6
15,COc1cc(/C=C(\C#N)C(=O)NCC2CCCO2)ccc1OCCC(C)C (stereo not given),7.9
16,CN(C)S(=O)(=O)c1cccc(NC(=O)CC23CC4CC(CC(C4)C2)C3)c1,10.8
17,Cc1ccc(S(=O)(=O)NC(=O)N(C)C2CCCCC2)cc1,> 46.6
18,O=C(Nc1ccc2[nH]c(=O)[nH]c2c1)C(F)(F)F,23.9
19,COc1c(F)c(F)cc2c(=O)c(C(=O)O)cn(C3CC3)c12,> 44.3
20,COc1ccc(CN2CCCCCC2)cc1,26.2
21,Cc1cnc(C(=O)OCC(=O)c2ccc[nH]2)cn1,> 36.8

row,Structure (SMILES),solubility kinetic [µg/mL]
1,CCOCCCn1cnc2c3cc(F)ccc3n(C)c2c1=O,10.4
2,O=C(NCCCn1ccnc1)c1cc(C(=O)C2CCCCC2)c[nH]1,49
3,CC(C)(C)c1csc(Sc2ccc([N+](=O)[O-])cn2)n1,1.1
4,CCOc1ccc(S(=O)(=O)NCCC(=O)NC2CCC(C)CC2)cc1 (stereo not given),37.7
5,CCOC(=O)N1CCN(CC(=O)c2ccc(O)c(C)c2O)CC1,40.7
6,CSc1nc(=S)n(-c2cc(C)ccc2C)c(C)c1C(C)=O,> 47.8
7,CC(C)CCn1c(=O)c(C(=O)NCc2ccco2)c(O)c2ccccc21,< 0.4
8,O=C(CCC(=O)N1CCOCC1)c1ccc(F)cc1,> 39.8
9,Cc1csc(NC(=O)CCCC(=O)O)c1-c1nc2ccccc2s1,> 54.1
10,O=C(COC(=O)CCC(=O)c1ccc(F)cc1)NC1CCCCC1,> 50.3
11,CC1CN(C(=O)c2cc3cc([N+](=O)[O-])ccc3oc2=O)CC(C)O1 (stereo not given),46.1
12,CCNCCC(CCC(C)C)c1ccc2c(c1)OCO2 (stereo not given),33.7
13,COc1ccc(O)c(CN2CCN(CCc3ccccc3)C(CCO)C2)c1 (stereo not given),54
14,O=C(Nc1ccccc1C(=O)NCCCN1CCOCC1)c1ccccc1,> 55.1
15,CCc1onc(C)c1C(=O)Nc1ccc2c(c1)OCO2,> 41.1
16,CC(O)CNCCCCOc1ccc(OCc2ccccc2)cc1 (stereo not given),40.7
17,Cc1cccc(C(=O)OCC(=O)NC2CC2)c1O,> 37.4
18,O=C1CCC(=O)N1CCSC(=S)N1CCSCC1,> 45.7
19,CCC(C)n1c(C)cc(C(N)=O)c1C (stereo not given),26.8
20,Cc1ccc(NC(=O)COC(=O)CC2CCCC2)cc1F,29.5
21,CCOC(=O)c1c(-c2ccc(C)cc2)csc1/N=C/N(C)C,> 47.5
